Assay results as given in paper PMC12186697, “HypoxyStat, a small-molecule form of hypoxia therapy that increases oxygen-hemoglobin affinity” (Cell, 2025).

Experiments:
[1] = system: hypoxia transcriptional response (HIF); experiment: Hypoxia biomarkers in mice (plasma Epo, hematocrit, blood glucose, hypoxia-induced brain transcripts); format: in vivo, mouse
Protocol: Plasma Epo measurements were performed with R&D Systems Epo Elisa Kit (MEP00B) according to manufacturer directions. Briefly, whole blood was collected with anticoagulant before centrifugation within 30 minutes of collection and stored at −80C until day of analysis. On the day of Epo assay, samples were thawed and diluted 2-fold and incubated in the assay plate for two hours. Each well was washed five times before the addition of Epo Conjugate followed by a two-hour incubation. Each well was washed five times before adding Substrate Solution to develop for 30 minutes before addition of Stop Solution. The optical density of each well was determined at 450nm and correction wavelength of 540/570.
(§1) Hematocrit was determined with an iStat VetScan 1 with Zoetis Chem 8+ cartridges. Blood glucose measurements were performed using OneTouch UltraPlus glucometer. Whole blood chemistry measurements were performed on a VetScan HM5.
Half of the hindbrain was collected at necropsy and immediately flash frozen. For RNA extraction, a stainless-steel bead (Qiagen) and 1 mL TRIzol™ Reagent (Thermo Fisher Scientific) were added to the frozen samples, which were rapidly lysed using a tissue lyser (Qiagen) for five 1-minute cycles of 30 Hz frequency. Subsequent steps for RNA isolation were identical as previously described.[9] Reverse transcription was performed using the QuantiTect Reverse Transcription Kit (Qiagen) instructions. Briefly, gDNA was wiped out from samples containing 1 μg RNA. gDNA-free RNA samples were reverse transcribed following Qiagen’s instructions. […] For each set of triplicates, an average CT value was obtained, and the difference in average CT between the target gene and β-actin was calculated (ΔCT). Next, the difference in ΔCT value between each sample and the average of the normoxia samples was calculated (ΔΔCT). Relative expression of each gene was determined by calculating 2^−ΔΔCT.

[2] = system: Ndufs4 KO mouse; experiment: Ndufs4 KO mouse model of Leigh syndrome (survival, body weight, temperature, behavior, neuropathology); format: in vivo; conditions: daily HypoxyStat initiated at P50
[3] = Mouse oral pharmacokinetics (blood and plasma, LC-MS/MS); format: in vivo, C57BL/6 mice
Protocol: We conducted a PK/PD study to determine the optimal dosing strategy for HypoxyStat in a chronic setting. First we administered a single 10 mg/kg oral dose of HypoxyStat to adult C57BL/6 mice and monitored its concentration in blood and plasma over a 10-day period (Figure 3A, left). Next, we administered HypoxyStat at doses of 20, 60, 200, and 600 mg/kg via oral gavage three times per week for 12 days. […] Based on blood levels of HypoxyStat and Hb measured on day 12, we estimated Hb occupancy to be 29.3% at 200 mg/kg and 41.4% at 600 mg/kg (Figure S1).[27]
Mouse plasma and whole blood samples were processed as outlined below. An equal volume of 3% aqueous formic acid in water was added to whole blood and plasma samples which were then vortexed at 600 rpm for 60 minutes at room temperature. Internal standard solution (acetonitrile containing 200 nM chrysin) was then added to the samples. They were then vortexed and centrifuged for 5 minutes at 4100 rpm and 4°C. Diluted extracts were injected into a Sciex 5500 LC-MS/MS system operated in positive mode for analysis. A Waters Acquity BEH C18 (50 x 2 mm, […]) UPLC column was used with Mobile Phases A (water:acetonitrile:formic acid [95:5:0.1, v:v:v]) and B (methanol:acetonitrile:formic acid [50:50:0.1, v:v:v]) to separate analytes. Multiple reaction monitoring transitions of 368/230 and 255/153 were used for HypoxyStat and chrysin, respectively.

[4] = Safety studies in mice at optimized dose; format: in vivo; conditions: optimized dose (400 mg/kg daily)
Protocol: Additionally, we used the Reaction Bio InVEST panel to test 25+ potential off-targets that have been identified by a consortium of pharmaceutical companies as high-yield candidates.
as §1

[5] = molecular target: T1, hemoglobin (Hb) in human red blood cells (Homo sapiens, UniProt P69905); experiment: Oxy-hemoglobin dissociation curve (Hemox Analyzer), p50; format: biochemical
T1 construct: incubated for at least one hour at 37C with whole blood before Hemox analysis; endogenous in cells; host or cells: human red blood cells / whole blood
T1 sequence (P69905 2-142 limits assumed): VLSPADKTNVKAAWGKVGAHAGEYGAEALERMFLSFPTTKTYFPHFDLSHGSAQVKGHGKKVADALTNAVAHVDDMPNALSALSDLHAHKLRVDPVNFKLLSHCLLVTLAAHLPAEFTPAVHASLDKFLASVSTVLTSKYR
T1 sequence (P68871 2-147 partner limits assumed): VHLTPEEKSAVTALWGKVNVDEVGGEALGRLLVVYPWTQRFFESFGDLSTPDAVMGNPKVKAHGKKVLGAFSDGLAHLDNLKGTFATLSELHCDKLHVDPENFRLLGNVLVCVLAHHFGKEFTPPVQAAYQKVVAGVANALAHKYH
Protocol: One of the most extensively studied compounds for sickle cell anemia is GBT-440 (Voxelotor) (Figure 1B).[25] The extent of left-shifting can be assessed by determining the p50 or the partial pressure of oxygen at which half of the total Hb pool is bound to oxygen. We incubated human red blood cells with GBT-440 and observed a ~75% decrease in p50 (from ~28 to ~7 mmHg), consistent with previously reported values (Figure 1D). Experiments were performed using a HemOx analyzer that monitors oxygen saturation via Hb absorbance across a range of dissolved oxygen tensions. Upon further review of the sickle cell anemia literature, we found another compound, hereafter termed HypoxyStat (Figure 1B), which appeared to have a similar p50 as GBT-440.[26] We confirmed that HypoxyStat induced an ~82% decrease in p50 (Figure 1D).
Oxy-hemoglobin dissociation analysis was performed by the UCSF RBC laboratory using the TCS Hemox Analyzer (TCS Medical Products Company, Huntington Valley, PA). Initial pO2 is set to 160 mmHg. Hemoglobin is fully oxygenated under these conditions (HbO% =100). Replacement of air with nitrogen lowers pO2 and is measured by Clark electrode along with the change in the absorbance spectrum of hemoglobin. At a pO2 of 0 mmHg, hemoglobin is fully deoxygenated (HbO% =0). The relation between pO2 and HbO% is plotted, and the pO2 at which HbO% = 50% is defined as P50. The typical sigmoid de-oxygenation curve of normal blood with a P50 of 26–28 mmHg is used as a control for incubation conditions and to ensure proper function of the Hemox analyzer. For left-shifter comparison, the compounds were dissolved in HEPES buffered saline and then incubated for at least one hour at 37C with whole blood before Hemox analysis. A control of whole blood incubated with vehicle is also reported.

SMILES: O=Cc1ccccc1C(=O)N1CCCC[C@H]1COc1cccc(O)c1C=O [HypoxyStat]
- circulating Epo and 5 hypoxia-induced transcripts in hindbrain ([1]; 400 mg/kg daily, 48 h, compared with inhaled hypoxia (11% O2)): induced to an equivalent or greater degree
- Epo and hematocrit with increasing dose ([1]; oral gavage 3 times per week for 12 days, up to 600 mg/kg): substantial increases in both Epo and hematocrit
- reversal of body weight loss, impaired behavior and neurological lesions in late-stage KO mice [2]: reversed multiple other disease presentations
- lifespan of late-stage Ndufs4 KO mice ([2]; p < 0.05 Mantel-Cox): significantly extended the lifespan
- concentration within red blood cells ([3]; 20, 60, 200 and 600 mg/kg oral gavage three times per week for 12 days): dose-dependent increase
- Cmax ([3]; C57BL/6, in vivo, oral, 10 mg/kg, Figure 2A, mouse): 1590 nM
- half-life ([3]; mouse, in vivo, 10 mg/kg oral gavage, C57BL/6 mice, read-out: effective half-life (Mouse PO half-life) (converted)): 5.04 days
- blood plasma ratio at 3 days ([3]; mouse, whole blood and plasma, 10 mg/kg oral gavage, C57BL/6 mice, 3 days post dosing): 396
- classical safety parameters (body weight, organ weights, complete blood count, clinical chemistries) [4]: not adversely affected
- p50 ([5]; human red blood cells incubated 1 h with 10 mM compound, vehicle ~28 mmHg): 5.6 mmHg
- decrease in p50 ([5]; human red blood cells incubated with compound, vs vehicle): ~ 82%
